Converted amounts (≈) assume the structure as drawn. The source made the active and inactive calls. No cut-off for these calls is given here.
What was measured:
Human respirovirus 3 = assay: Antiviral activity against Parainfluenza 3 virus assessed as inhibition of viral replication; assay type: functional, organism-based
[1] = test system: Mammalian orthoreovirus 1; assay: Antiviral activity against Reovirus 1 assessed as inhibition of viral replication; assay type: functional, organism-based
Sindbis virus = assay: Antiviral activity against Sindbis virus assessed as inhibition of viral replication; assay type: functional, organism-based
[2] = test system: Vesicular stomatitis virus; assay: Antiviral activity against Vesicular stomatitis virus assessed as inhibition of viral replication; assay type: functional, organism-based
[3] = test system: Respiratory syncytial virus; assay: Antiviral activity against Respiratory syncytial virus assessed as inhibition of viral replication; assay type: functional, organism-based
Coxsackievirus B4 = assay: Antiviral activity against Coxsackievirus B4 assessed as inhibition of viral replication; assay type: functional, organism-based
Feline coronavirus = assay: Antiviral activity against Feline coronavirus assessed as inhibition of viral replication; assay type: functional, organism-based
Yellow fever virus = assay: Antiviral activity against Yellow fever virus assessed as inhibition of viral replication; assay type: functional, organism-based
Dengue virus = assay: Antiviral activity against Dengue virus assessed as inhibition of viral replication; assay type: functional, organism-based
Rift Valley fever virus = assay: Antiviral activity against Rift Valley fever virus assessed as inhibition of viral replication; assay type: functional, organism-based
Punta Toro virus = assay: Antiviral activity against Punta Toro virus assessed as inhibition of viral replication; assay type: functional, organism-based
West Nile virus = assay: Antiviral activity against West Nile virus assessed as inhibition of viral replication; assay type: functional, organism-based
[4] = Inhibition of DNA-dependent DNA polymerase activity of HIV1 reverse transcriptase p66/p66 homodimer using activated DNA and [alpha-32P]dATP after 30 mins by liquid scintillation counting; parameters: species or system Human immunodeficiency virus 1
[5] = target: Human immunodeficiency virus type 1 reverse transcriptase (Human immunodeficiency virus 1, UniProt Q72547); assay: Inhibition of RNA-dependent DNA polymerase activity of HIV1 reverse transcriptase p66/p51 heterodimer using [8-3H]dGTP as substrate after 30 mins by liquid scintillation counting
[6] = Selectivity index, ratio of CC50 for human CEM cells to EC50 for HIV1 3B; assay type: toxicity, cell-based, CCRF-CEM; details: read-out: Ratio CC50/EC50
[7] = Solubility of the compound in 10% DMSO after overnight incubation by UV spectrometric analysis; assay type: physicochemical
[8] = Solubility of the compound in 0.1% DMSO after overnight incubation by UV spectrometric analysis; assay type: physicochemical
[9] = test system: Human immunodeficiency virus 1; assay: Antiviral activity against HIV1 3B infected in human CEM cells assessed as inhibition of virus-induced giant cell formation after 4 days by microscopic analysis; assay type: functional, organism-based; details: Human immunodeficiency virus 1, 3B, CCRF-CEM, 96 h
[10] = test system: Human immunodeficiency virus 2; assay: Antiviral activity against Human immunodeficiency virus type 2 ROD infected in human CEM cells assessed as inhibition of virus-induced giant cell formation after 4 days by microscopic analysis; assay type: functional, organism-based; details: ISOLATE ROD, CCRF-CEM
[11] = test system: Human immunodeficiency virus 2; assay: Antiviral activity against Human immunodeficiency virus type 2 ROD infected in human MT4 cells assessed as inhibition of virus-induced cytopathic effect after 4 days by MTT assay; assay type: functional, organism-based; details: ISOLATE ROD
[12] = test system: Human immunodeficiency virus 1; assay type: functional, organism-based; details: Human immunodeficiency virus 1, 3B, CCRF-CEM, 96 h
[13] = Cytotoxicity against human CEM cells after 4 days by MTT assay; assay type: cell-based; details: CEM cells (CCRF-CEM)
Human alphaherpesvirus 1 = assay: Antiviral activity against HSV1 assessed as inhibition of viral replication; assay type: functional, organism-based
Human alphaherpesvirus 2 = assay: Antiviral activity against HSV-2 assessed as inhibition of viral replication; assay type: functional, organism-based
Vaccinia virus = assay: Antiviral activity against Vaccinia virus assessed as inhibition of viral replication; assay type: functional, organism-based; details: Orthopoxvirus vaccinia
[14] = test system: Human immunodeficiency virus 1; assay: Inhibition of DNA-dependent DNA polymerase activity of HIV1 reverse transcriptase p66/p66 homodimer using activated DNA and [alpha-32P]dATP after 30 mins by liquid scintillation counting in presence of heparin
[15] = Inhibition of DNA-dependent DNA polymerase activity of HIV1 reverse transcriptase p66/p66 homodimer L100I mutant using activated DNA and [alpha-32P]dATP after 30 mins by liquid scintillation counting; parameters: species or system Human immunodeficiency virus 1
[16] = Inhibition of DNA-dependent DNA polymerase activity of HIV1 reverse transcriptase p66/p66 homodimer V106A mutant using activated DNA and [alpha-32P]dATP after 30 mins by liquid scintillation counting; parameters: species or system Human immunodeficiency virus 1
[17] = Inhibition of DNA-dependent DNA polymerase activity of HIV1 reverse transcriptase p66/p66 homodimer Y188L mutant using activated DNA and [alpha-32P]dATP after 30 mins by liquid scintillation counting; parameters: species or system Human immunodeficiency virus 1
[18] = Inhibition of DNA-dependent DNA polymerase activity of HIV1 reverse transcriptase p66/p66 homodimer G190A mutant using activated DNA and [alpha-32P]dATP after 30 mins by liquid scintillation counting; parameters: species or system Human immunodeficiency virus 1
[19] = test system: Human immunodeficiency virus 1; assay: Ratio of Ki for HIV1 RT p66/p66 homodimer L100I mutant to Ki for wild-type HIV1 RT p66/p66 homodimer
[20] = test system: Human immunodeficiency virus 1; assay: Ratio of Ki for HIV1 RT p66/p66 homodimer K103N mutant to Ki for wild-type HIV1 RT p66/p66 homodimer
[21] = test system: Human immunodeficiency virus 1
[22] = test system: Human immunodeficiency virus 1; assay: Ratio of Ki for HIV1 RT p66/p66 homodimer Y188L mutant to Ki for wild-type HIV1 RT p66/p66 homodimer
[23] = test system: Human immunodeficiency virus 1; remark: listed apart in the source
[24] = test system: Human immunodeficiency virus 1; assay type: functional, organism-based; details: Human immunodeficiency virus 1, 3B, MT4, 96 h
[25] = Cytotoxicity against human MT4 cells after 4 days by MTT assay; assay type: cell-based
[26] = target: Human immunodeficiency virus type 1 reverse transcriptase (Human immunodeficiency virus 1, UniProt Q72547, K103N)
in vitro [27] = details: human, MT4 cells
in vitro [28] = details: human, MT4 cells; remark: listed apart in the source
[29] = test system: Human immunodeficiency virus 1; assay: microbe, parasite or virus in culture; details: Human immunodeficiency virus 1, 3B, MT4, 96 h
[30] = test system: Human immunodeficiency virus 1; assay: Ratio of Ki for HIV1 RT p66/p66 homodimer G190A mutant to Ki for wild-type HIV1 RT p66/p66 homodimer

Structure (SMILES) | Activity (Human respirovirus 3) | Activity [1] | Activity (Sindbis virus) | Activity [2] | Activity [3] | Activity (Coxsackievirus B4) | Activity (Feline coronavirus) | Activity (Yellow fever virus) | Activity (Dengue virus) | Activity (Rift Valley fever virus) | Activity (Punta Toro virus) | Activity (West Nile virus) | Ki [4] [µM] | Ki [5] [µM] | solubility [7] [µM] | solubility [8] [µM] | Activity [10] | Activity [11] | Activity (Human alphaherpesvirus 1) | Activity (Human alphaherpesvirus 2) | further results
Cc1cc(C)cc(Cc2cc(Cl)ccc2OCCn2ccc(=O)[nH]c2=O)c1 | inactive | inactive | inactive | inactive | inactive | inactive | inactive | inactive | inactive | inactive | inactive | inactive | 5 | 2.1 | 1.7 (≈ 0.654 µg/mL) | 0.9 (≈ 0.346 µg/mL) | inactive | inactive | inactive | inactive | selectivity ratio [6]: > 909; EC50 [9]: 0.22 µM; EC50 [12]: > 200 µM; CC50 at 96 h [13]: > 200 µM; Activity (Vaccinia virus): inactive
Cc1cc(C)cc(Cc2cc(C)ccc2OCCn2ccc(=O)[nH]c2=O)c1 | inactive | inactive | inactive | inactive | inactive | inactive | inactive | inactive | inactive | inactive | inactive | inactive | 5.9 | 2.7 | 184 (≈ 67.2 µg/mL) | 44.4 (≈ 16.2 µg/mL) | inactive | inactive | inactive | inactive | inhibition [14]: Active; selectivity ratio [6]: 507; EC50 [9]: 0.13 µM; CC50 at 96 h [13]: 66 µM; Activity (Vaccinia virus): inactive
Cc1cc(C)cc(C(=O)c2cc(Cl)ccc2OCCn2ccc(=O)[nH]c2=O)c1 | inactive | inactive | inactive | inactive | inactive | inactive | inactive | inactive | inactive | inactive | inactive | inactive | 2.4 | 0.52 | 16.6 (≈ 6.62 µg/mL) | 3.7 (≈ 1.48 µg/mL) | inactive | inactive | inactive | inactive | Ki [15]: 3.3 µM; Ki [16]: > 1000 µM; Ki [17]: 10 µM; Ki [18]: 1 µM; Ratio Ki [19]: 1.4; Ratio Ki [20]: 13.8; Ratio Ki [21]: 3.3; Ratio Ki [22]: 4.3; Ratio Ki [23]: 23.8; EC50 [24]: > 313 µM; CC50 at 96 h [25]: > 313 µM; Activity (Vaccinia virus): inactive; Ki [26]: 33 µM; selectivity ratio (in vitro [27]): > 19600; selectivity ratio (in vitro [28]): 1; EC50 [29]: 0.016 µM
O=C(c1cc(Cl)cc(Cl)c1)c1cc(Cl)ccc1OCCn1ccc(=O)[nH]c1=O | inactive | inactive | inactive | inactive | inactive | inactive | inactive | inactive | inactive | inactive | inactive | inactive | 0.68 | 0.82 | 9.4 (≈ 4.13 µg/mL) | 1.9 (≈ 0.835 µg/mL) | inactive | inactive | inactive | inactive | Ki [15]: 1.8 µM; Ki [16]: > 1200 µM; Ki [17]: 8.4 µM; Ki [18]: 1.6 µM; Ratio Ki [19]: 2.5; Ratio Ki [20]: 8; Ratio Ki [21]: 2; Ratio Ki [22]: 12; Ratio Ki [30]: 2.3; Ratio Ki [23]: 14.9; EC50 [24]: 1.13 µM; CC50 at 96 h [25]: > 284 µM; Activity (Vaccinia virus): inactive; Ki [26]: 5.6 µM; selectivity ratio (in vitro [27]): > 15800; selectivity ratio (in vitro [28]): > 251; EC50 [29]: 0.018 µM

Source: ChEMBL document CHEMBL1833830, “1-[2-(2-Benzoyl- and 2-benzylphenoxy)ethyl]uracils as potent anti-HIV-1 agents” (Bioorg Med Chem, 2011)
